From patent US20230150986A1, “ANTAGONISTS OF THE MUSCARINIC ACETYLCHOLINE RECEPTOR M4” (Vanderbilt University, priority 2019, published 2023)

Molecular target: T1, Human M4 (Homo sapiens, UniProt P08173)
T1 construct: Human or rat M4 cDNA, along with the chimeric G protein Gq,5, were transfected into Chinese hamster ovary (CHO-K1) cells; expressed in transfected cells; host or cells: CHO-K1 (M4/Gqi5/CHO)
T1 sequence (P08173 1-479): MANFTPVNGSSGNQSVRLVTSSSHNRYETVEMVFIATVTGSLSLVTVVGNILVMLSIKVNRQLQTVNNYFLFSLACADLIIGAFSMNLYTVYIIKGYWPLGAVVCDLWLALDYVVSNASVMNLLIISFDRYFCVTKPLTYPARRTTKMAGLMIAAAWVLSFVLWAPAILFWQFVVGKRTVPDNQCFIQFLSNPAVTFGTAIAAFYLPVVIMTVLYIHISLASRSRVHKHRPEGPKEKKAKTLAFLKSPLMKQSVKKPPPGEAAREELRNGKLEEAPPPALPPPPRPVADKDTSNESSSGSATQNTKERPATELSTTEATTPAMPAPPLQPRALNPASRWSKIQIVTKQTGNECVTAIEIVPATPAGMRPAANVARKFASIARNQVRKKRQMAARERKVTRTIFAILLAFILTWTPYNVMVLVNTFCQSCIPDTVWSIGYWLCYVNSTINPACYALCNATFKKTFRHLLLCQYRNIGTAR
Assay: mAChR M4 cell-based functional assay (calcium flux, decrease of EC80 acetylcholine response)
Conditions: for Human M4 Emin: % ACh maximum at 30 μM; for IC50: CHO-K1 cells with human M4 and Gqi5, EC80 acetylcholine
Procedure, shortened: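 CHO-K1 cells stably co-expressing M4 with chimeric Gqi5, loaded with Fluo-4 AM for 50 min at 37 °C; compounds added as 10-point 1:3 curves, then acetylcholine at EC20 (143 s) and EC80 (268 s). Calcium read by FDSS fluorescence ratio; IC50 from four-parameter fit of decrease in EC80 acetylcholine response.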

SMILES | Human M4 Emin | IC50
Fc1cc(F)c(F)c(-c2ccc(N[C@H]3C[C@@H]4CN(C5CCC6(CCOCC6)CC5)C[C@@H]4C3)nn2)c1 [Compound 5, (3aR,5s,6aS)-2-(3-oxaspiro[5.5]undecan-9-yl)-N-(6-(2,3,5-trifluorophenyl)pyridazin-3-yl)octahydrocyclopenta[c]pyrrol-5-amine] | 3% | 13.5 nM
O=S1(=O)CCC(CN2C[C@H]3C[C@H](Nc4ccc(-c5cc(F)cc(F)c5F)nn4)C[C@H]3C2)CC1 [Compound 69, 4-(((3aR,5s,6aS)-5-((6-(2,3,5-trifluorophenyl)pyridazin-3-yl)amino)hexahydrocyclopenta[c]pyrrol-2(1H)-yl)methyl)tetrahydro-2H-thiopyran 1,1-dioxide] | 3% | 0.9 nM
Fc1cc(F)c(F)c(-c2ccc(N[C@H]3C[C@@H]4CN(Cc5cccc(F)c5F)C[C@@H]4C3)nn2)c1 [Compound 90, (3aR,5s,6aS)-2-(2,3-difluorobenzyl)-N-(6-(2,3,5-trifluorophenyl)pyridazin-3-yl)octahydrocyclopenta[c]pyrrol-5-amine] | 10% | 960 nM
Fc1cc(F)c(F)c(-c2ccc(N[C@H]3C[C@@H]4CN(Cc5cccc(Cl)n5)C[C@@H]4C3)nn2)c1 [Compound 20, (3aR,5s,6aS)-2-((6-chloropyridin-2-yl)methyl)-N-(6-(2,3,5-trifluorophenyl)pyridazin-3-yl)octahydrocyclopenta[c]pyrrol-5-amine] | 5% | 111 nM
Fc1cc(F)c(F)c(-c2ccc(N[C@H]3C[C@@H]4CN(CC5CCCCC5)C[C@@H]4C3)nn2)c1 [Compound 3, (3aR,5s,6aS)-2-(cyclohexylmethyl)-N-(6-(2,3,5-trifluorophenyl)pyridazin-3-yl)octahydrocyclopenta[c]pyrrol-5-amine] | 3% | 57.5 nM
CC(N1C[C@H]2C[C@H](Nc3ccc(-c4cc(F)cc(F)c4F)nn3)C[C@H]2C1)C1(C)CCOCC1 (stereo partly drawn) [Compound 46, (3aR,5s,6aS)-2-(1-(4-methyltetrahydro-2H-pyran-4-yl)ethyl)-N-(6-(2,3,5-trifluorophenyl)pyridazin-3-yl)octahydrocyclopenta[c]pyrrol-5-amine] | 2% | 58.9 nM
[2H]C([2H])(C1CC(C)(C)OC(C)(C)C1)N1C[C@H]2C[C@H](Nc3ccc(-c4cc(F)cc(F)c4F)nn3)C[C@H]2C1 [Compound 83, (3aR,5s,6aS)-2-((2,2,6,6-tetramethyltetrahydro-2H-pyran-4-yl)methyl-d2)-N-(6-(2,3,5-trifluorophenyl)pyridazin-3-yl)octahydrocyclopenta[c]pyrrol-5-amine] | 3% | 56 nM
CC1(C)CC(CN2C[C@H]3C[C@H](Nc4ccc(-c5cc(F)cc(F)c5F)nn4)C[C@H]3C2)CC(C)(C)O1 [Compound 82, (3aR,5s,6aS)-2-((2,2,6,6-tetramethyltetrahydro-2H-pyran-4-yl)methyl)-N-(6-(2,3,5-trifluorophenyl)pyridazin-3-yl)octahydrocyclopenta[c]pyrrol-5-amine] | 2% | 62 nM
[2H]C(C)(c1ccccn1)N1C[C@H]2C[C@H](Nc3ccc(-c4cc(F)cc(F)c4F)nn3)C[C@H]2C1 (stereo partly drawn) [Compound 15, (3aR,5s,6aS)-2-(1-(pyridin-2-yl)ethyl-1-d)-N-(6-(2,3,5-trifluorophenyl)pyridazin-3-yl)octahydrocyclopenta[c]pyrrol-5-amine] | 2% | 95.2 nM
COCCCN1C[C@H]2C[C@H](Nc3ccc(-c4cc(F)cc(F)c4F)nn3)C[C@H]2C1 [Compound 75, (3aR,5s,6aS)-2-(3-methoxypropyl)-N-(6-(2,3,5-trifluorophenyl)pyridazin-3-yl)octahydrocyclopenta[c]pyrrol-5-amine] | 4% | 79 nM
CC(C)(C)OCCN1C[C@H]2C[C@H](Nc3ccc(-c4cc(F)cc(F)c4F)nn3)C[C@H]2C1 [Compound 53, (3aR,5s,6aS)-2-(2-(tert-butoxy)ethyl)-N-(6-(2,3,5-trifluorophenyl)pyridazin-3-yl)octahydrocyclopenta[c]pyrrol-5-amine] | 3% | 2.6 nM
Cc1cccc(CN2C[C@H]3C[C@H](Nc4ccc(-c5cc(F)cc(F)c5F)nn4)C[C@H]3C2)n1 [Compound 16, (3aR,5s,6aS)-2-((6-methylpyridin-2-yl)methyl)-N-(6-(2,3,5-trifluorophenyl)pyridazin-3-yl)octahydrocyclopenta[c]pyrrol-5-amine] | 3% | 38 nM
Fc1cc(F)c(F)c(-c2ccc(N[C@H]3C[C@@H]4CN(Cc5ccnnc5)C[C@@H]4C3)nn2)c1 [Compound 38, (3aR,5s,6aS)-2-(pyridazin-4-ylmethyl)-N-(6-(2,3,5-trifluorophenyl)pyridazin-3-yl)octahydrocyclopenta[c]pyrrol-5-amine] | 16% | 5210 nM
Fc1cc(F)c(F)c(-c2ccc(N[C@H]3C[C@@H]4CN(Cc5cc6n(n5)CCOC6)C[C@@H]4C3)nn2)c1 [Compound 36, (3aR,5s,6aS)-2-((6,7-dihydro-4H-pyrazolo[5,1-c][1,4]oxazin-2-yl)methyl)-N-(6-(2,3,5-trifluorophenyl)pyridazin-3-yl)octahydrocyclopenta[c]pyrrol-5-amine] | 3% | 2.22 nM
[2H]C([2H])(COC(C)(C)C)N1C[C@H]2C[C@H](Nc3ccc(-c4cc(F)cc(F)c4F)nn3)C[C@H]2C1 [Compound 56, (3aR,5s,6aS)-2-(2-(tert-butoxy)ethyl-1,1-d2)-N-(6-(2,3,5-trifluorophenyl)pyridazin-3-yl)octahydrocyclopenta[c]pyrrol-5-amine] | 3% | 3 nM
[2H]C([2H])([C@H]1COCCO1)N1C[C@H]2C[C@H](Nc3ccc(-c4cc(F)cc(F)c4F)nn3)C[C@H]2C1 [Compound 39, (3aR,5s,6aS)-2-(((S)-1,4-dioxan-2-yl)methyl-d2)-N-(6-(2,3,5-trifluorophenyl)pyridazin-3-yl)octahydrocyclopenta[c]pyrrol-5-amine] | 3% | 0.56 nM
Fc1ccc(CN2C[C@H]3C[C@H](Nc4ccc(-c5cc(F)cc(F)c5F)nn4)C[C@H]3C2)c(F)c1 [Compound 91, (3aR,5s,6aS)-2-(2,4-difluorobenzyl)-N-(6-(2,3,5-trifluorophenyl)pyridazin-3-yl)octahydrocyclopenta[c]pyrrol-5-amine] | 4% | 360 nM
CC1(CN2C[C@H]3C[C@H](Nc4ccc(-c5cc(F)cc(F)c5F)nn4)C[C@H]3C2)CCOCC1 [Compound 11, (3aR,5s,6aS)-2-((4-methyltetrahydro-2H-pyran-4-yl)methy)-N-(6-(2,3,5-trifluorophenyl)pyridazin-3-yl)octahydrocyclopenta[c]pyrrol-5-amine] | 3% | 4.63 nM
[2H]C([2H])(C1CC(C)(O)C1)N1C[C@H]2C[C@H](Nc3ccc(-c4cc(F)cc(F)c4F)nn3)C[C@H]2C1 (stereo partly drawn) [Compound 55, 1-methyl-3-(((3aR,5s,6aS)-5-((6-(2,3,5-trifluorophenyl)pyridazin-3-yl)amino)hexahydrocyclopenta[c]pyrrol-2(1H)-yl)methyl-d2)cyclobutan-1-ol] | 5% | 15 nM
Fc1cc(F)c(F)c(-c2ccc(N[C@H]3C[C@@H]4CN(CCC5COC5)C[C@@H]4C3)nn2)c1 [Compound 84, (3aR,5s,6aS)-2-(2-(oxetan-3-yl)ethyl)-N-(6-(2,3,5-trifluorophenyl)pyridazin-3-yl)octahydrocyclopenta[c]pyrrol-5-amine] | 4% | 72 nM
[2H]C([2H])([C@@H]1CCCOC1)N1C[C@H]2C[C@H](Nc3ccc(-c4cc(F)cc(F)c4F)nn3)C[C@H]2C1 [Compound 66, (3aR,5s,6aS)-2-(((S)-tetrahydro-2H-pyran-3-yl)methyl-d2)-N-(6-(2,3,5-trifluorophenyl)pyridazin-3-yl)octahydrocyclopenta[c]pyrrol-5-amine] | 3% | 12 nM
OC1CCCCC1N1C[C@H]2C[C@H](Nc3ccc(-c4cc(F)cc(F)c4F)nn3)C[C@H]2C1 (stereo partly drawn) [Compound 65, 2-((3aR,5s,6aS)-5-((6-(2,3,5-trifluorophenyl)pyridazin-3-yl)amino)hexahydrocyclopenta[c]pyrrol-2(1H)-yl)cyclohexan-1-ol] | 6% | 350 nM
Fc1cc(F)c(F)c(-c2ccc(N[C@H]3C[C@@H]4CN(Cc5ccccc5F)C[C@@H]4C3)nn2)c1 [Compound 89, (3aR,55,6aS)-2-(2-fluorobenzyl)-N-(6-(2,3,5-trifluoropheny)pyridazin-3-yl)octahydrocyclopenta[c]pyrrol-5-amine] | 3% | 170 nM
